Experiments:
Test in all cases: combination Emax (second highest fraction inhibited in the dose matrix, 72 h); higher = more inhibition; extreme values may be limits of the assay
BPH-1 (Non-Cancerous) = system: BPH-1 (Non-Cancerous)
Method in brief: (§1)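 Bliss excess equals the observed combination effect minus the expected value EA + EB − EA·EB, where EA and EB are the effects of each agent alone. Combination Emax is the second-highest inhibition within the matrix. Inhibition was scaled from CellTiter-Glo 2.0 luminescence, with 0 set by vehicle wells and 1 by blank wells, after 72 hours of two-drug dosing of cells plated in 1536-well plates.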

EW-11 (Ewing's Sarcoma) = system: EW-11 (Ewing's Sarcoma)
Method in brief: as §1

[1] = system: L-428 (Hodgkin's Lymphoma)
Method in brief: as §1

[2] = system: BFTC-909 (Kidney Carcinoma)
Method in brief: as §1

[3] = system: NCI-H209 (Small Cell Lung Carcinoma)
Method in brief: as §1

[4] = system: KMRC-20 (Kidney Carcinoma)
Method in brief: as §1

[5] = system: SAS (Oral Cavity Carcinoma)
Method in brief: as §1

[6] = system: CAL-33 (Oral Cavity Carcinoma)
Method in brief: as §1

[7] = system: MHH-CALL-2 (B-Lymphoblastic Leukemia)
Method in brief: as §1

[8] = system: KYAE-1 (Esophageal Adenocarcinoma)
Method in brief: as §1

[9] = system: Hs-746T (Gastric Carcinoma)
Method in brief: as §1

MPP-89 (Mesothelioma) = system: MPP-89 (Mesothelioma)
Method in brief: as §1

[10] = system: SW1573 (Lung Adenocarcinoma)
Method in brief: as §1

CAL-72 (Osteosarcoma) = system: CAL-72 (Osteosarcoma)
Method in brief: as §1

GAMG (Glioblastoma) = system: GAMG (Glioblastoma)
Method in brief: as §1

[11] = system: Detroit562 (Head and Neck Carcinoma)
Method in brief: as §1

BE2-M17 (Neuroblastoma) = system: BE2-M17 (Neuroblastoma)
Method in brief: as §1

[12] = system: FTC-133 (Thyroid Gland Carcinoma)
Method in brief: as §1

[13] = system: HeLa (Cervical Carcinoma)
Method in brief: as §1

[14] = system: NUGC-4 (Gastric Carcinoma)
Method in brief: as §1

SMILES | combination Emax (BPH-1 (Non-Cancerous)) | combination Emax (EW-11 (Ewing's Sarcoma)) | combination Emax [1] | combination Emax [2] | combination Emax [3] | combination Emax [4] | combination Emax [5] | combination Emax [6] | combination Emax [7] | combination Emax [8] | combination Emax [9] | combination Emax (MPP-89 (Mesothelioma)) | combination Emax [10] | combination Emax (CAL-72 (Osteosarcoma)) | combination Emax (GAMG (Glioblastoma)) | combination Emax [11] | combination Emax (BE2-M17 (Neuroblastoma)) | combination Emax [12] | combination Emax [13] | combination Emax [14]
Cc1c2c(nn1C)CSCc1cc(n(C)n1)CSc1cc(c3ccccc3c1)OCCCc1c(C(=O)O)n(C)c3c-2c(Cl)ccc13 [AZD5991] + Cn1cnc2c(F)c(Nc3ccc(Br)cc3Cl)c(C(=O)NOCCO)cc21 [Selumetinib] (first compound max 1 µM, 7x7, partner max 3 µM) | 0.604 | 0.76 | 0.0936 | 0.3 | 0.402 | 0.196 | 0.44 | 0.411 | 1 | 0.163 | 0.422 | 0.193 | 0.169 | 0.406 | 0.299 | 0.365 | 0.956 | 0.738 | 0.496 | 0.616
CN(CCO)CC[C@H](CSc1ccccc1)Nc1ccc(S(=O)(=O)NC(=O)c2ccc(N3CCC([C@@H](O)c4ccccc4-c4ccc(Cl)cc4)CC3)cc2)cc1S(=O)(=O)C(F)(F)F [AZD4320] + CN(C)CCCOc1ccc(-c2ccc3ncc4c(c3c2)n(C2CCOCC2)c(=O)n4C)cn1 [AZD0156] (first compound max 1 µM, 7x7, partner max 1 µM) | 0.474 | 0.854 | 0.828 | 0.239 | 1 | 0.113 | 0.0348 | 0.198 | 0.391 | 0.338 | 0.38 | 0.236 | 0.128 | 0.332 | 0.197 | 0.168 | 0.258 | 0.44 | 0.0679 | 0.174
NC1(C(=O)N[C@@H](CCO)c2ccc(Cl)cc2)CCN(c2ncnc3[nH]ccc23)CC1 [Capivasertib] + Cn1cnc2c(F)c(Nc3ccc(Br)cc3Cl)c(C(=O)NOCCO)cc21 [Selumetinib] (first compound max 10 µM, 7x7, partner max 10 µM) | 0.716 | 0.453 | 0.126 | 0.734 | 0.163 | 0.392 | 0.615 | 0.789 | 0.582 | 0.13 | 0.691 | 0.386 | 0.362 | 0.305 | 0.653 | 0.798 | 0.654 | 0.608 | 0.253 | 0.329
NC1(C(=O)N[C@@H](CCO)c2ccc(Cl)cc2)CCN(c2ncnc3[nH]ccc23)CC1 [Capivasertib] + CC(C)n1c(=O)n(C)c2cnc3cc(F)c(-c4ccc(OCCCN5CCCCC5)nc4)cc3c21 [AZD1390] (first compound max 10 µM, 7x7, partner max 0.3 µM) | 0.459 | 0.511 | 0.162 | 0.622 | 0.17 | 0.336 | 0.26 | 0.478 | 0.231 | 0.109 | 0.332 | 0.439 | 0.235 | 0.265 | 0.512 | 0.599 | 0.177 | 0.582 | 0.199 | 0.145
NC1(C(=O)N[C@@H](CCO)c2ccc(Cl)cc2)CCN(c2ncnc3[nH]ccc23)CC1 [Capivasertib] + C[C@@H]1COCCN1C2=NC(=NC(=C2)C3(CC3)[S@](=N)(=O)C)C4=C5C=CNC5=NC=C4 [AZD6738] (first compound max 10 µM, 7x7, partner max 10 µM) | 0.574 | 0.753 | 0.77 | 0.869 | 0.9 | 0.647 | 0.829 | 0.918 | 0.954 | 0.165 | 0.582 | 0.545 | 0.461 | 0.842 | 0.705 | 0.918 | 0.702 | 0.802 | 0.518 | 0.469
COc1nnc2ccc(N3CCC(c4ccc(OCCN5CCN(C)C(=O)[C@H]5C)cc4)CC3)nn12 [AZD5153] + CC1(C)CCC(CN2CCN(c3ccc(C(=O)NS(=O)(=O)c4ccc(NCC5CCOCC5)c([N+](=O)[O-])c4)c(Oc4cnc5[nH]ccc5c4)c3)CC2)=C(c2ccc(Cl)cc2)C1 [Venetoclax] (first compound max 1 µM, 7x7, partner max 1 µM) | 0.745 | 0.457 | 0.8 | 0.496 | 0.727 | 0.452 | 0.754 | 0.402 | 0.429 | 0.0501 | 0.512 | 0.497 | 0.43 | 0.495 | 0.436 | 0.8 | 0.621 | 0.578 | 0.433 | 0.567
COc1nnc2ccc(N3CCC(c4ccc(OCCN5CCN(C)C(=O)[C@H]5C)cc4)CC3)nn12 [AZD5153] + C=CCn1c(=O)c2cnc(Nc3ccc(N4CCN(C)CC4)cc3)nc2n1-c1cccc(C(C)(C)O)n1 [AZD1775] (first compound max 1 µM, partner max 1 µM) | 0.88 | 0.572 | 0.918 | 0.702 | 0.912 | 0.694 | 0.823 | 0.724 | 0.742 | 0.0798 | 0.535 | 0.482 | 0.544 | 0.647 | 0.665 | 0.823 | 0.964 | 0.837 | 0.54 | 0.641
CN(CCO)CC[C@H](CSc1ccccc1)Nc1ccc(S(=O)(=O)NC(=O)c2ccc(N3CCC([C@@H](O)c4ccccc4-c4ccc(Cl)cc4)CC3)cc2)cc1S(=O)(=O)C(F)(F)F [AZD4320] + C1CN(CCC1(C(=O)N[C@@H](CCO)C2=CC=C(C=C2)Cl)N)C3=NC=NC4=C3C=CN4 [Capivasertib] (first compound max 1 µM, 7x7, partner max 3 µM) | 0.562 | 0.837 | 0.785 | 0.346 | 1 | 0.245 | 0.132 | 0.363 | 0.311 | 0.65 | 0.46 | 0.198 | 0.296 | 0.315 | 0.407 | 0.414 | 0.374 | 0.517 | 0.0628 | 0.0873
Cc1c2c(nn1C)CSCc1cc(n(C)n1)CSc1cc(c3ccccc3c1)OCCCc1c(C(=O)O)n(C)c3c-2c(Cl)ccc13 [AZD5991] + C=CCn1c(=O)c2cnc(Nc3ccc(N4CCN(C)CC4)cc3)nc2n1-c1cccc(C(C)(C)O)n1 [AZD1775] (first compound max 1 µM, partner max 1 µM) | 0.525 | 0.863 | 0.82 | 0.944 | 0.95 | 0.638 | 0.625 | 0.802 | 1 | 0.668 | 0.605 | 0.477 | 0.44 | 0.782 | 0.522 | 0.749 | 0.986 | 0.956 | 0.841 | 0.47
CC(=O)c1c(C)c2cnc(Nc3ccc(N4CCNCC4)cn3)nc2n(C2CCCC2)c1=O [Palbociclib] + CC1(C)CCC(CN2CCN(c3ccc(C(=O)NS(=O)(=O)c4ccc(NCC5CCOCC5)c([N+](=O)[O-])c4)c(Oc4cnc5[nH]ccc5c4)c3)CC2)=C(c2ccc(Cl)cc2)C1 [Venetoclax] (first compound max 10 µM, 7x7, partner max 1 µM) | 0.153 | 0.203 | 0.467 | 0.326 | 0.921 | 0.214 | 0.47 | 0.113 | 0.155 | 0.132 | 0.24 | 0.0837 | 0.204 | 0.345 | 0.231 | 0.543 | 0.386 | 0.0919 | 0.0741 | 0.194
CS(=O)(=O)CCNCc1ccc(-c2ccc3ncnc(Nc4ccc(OCc5cccc(F)c5)c(Cl)c4)c3c2)o1 [Lapatinib] + C[C@@H](Oc1cc(-c2cnn(C3CCNCC3)c2)cnc1N)c1c(Cl)ccc(F)c1Cl [Crizotinib] (first compound max 10 µM, 7x7, partner max 10 µM) | 0.949 | 0.936 | 0.913 | 0.869 | 0.927 | 0.916 | 0.825 | 0.989 | 1 | 0.842 | 0.876 | 0.696 | 0.462 | 0.906 | 0.82 | 1 | 0.868 | 0.84 | 0.859 | 0.808
CC1(C)CCC(CN2CCN(c3ccc(C(=O)NS(=O)(=O)c4ccc(NCC5CCOCC5)c([N+](=O)[O-])c4)c(Oc4cnc5[nH]ccc5c4)c3)CC2)=C(c2ccc(Cl)cc2)C1 [Venetoclax] + C[C@@H]1COCCN1C2=NC(=NC(=C2)C3(CC3)[S@](=N)(=O)C)C4=C5C=CNC5=NC=C4 [AZD6738] (first compound max 1 µM, 7x7, partner max 10 µM) | 0.332 | 0.781 | 0.779 | 0.853 | 0.981 | 0.665 | 0.834 | 0.862 | 0.863 | 0.121 | 0.508 | 0.686 | 0.351 | 0.902 | 0.708 | 0.829 | 0.939 | 0.779 | 0.563 | 0.534

Source: the supplement of paper PMC11061612
